Experiments:
CHI SQUARE tolerability = assay type: in vivo, human; settings: 3, 6, and 12 mg/kg
Source text: 504 subjects presenting with acute chest pain or other angina equivalent symptoms, indicative of a diagnosis of ST segment elevation myocardial infarction, non-ST elevation myocardial infarction or unstable angina were enrolled. To be eligible, subjects must have angiographic evidence of coronary artery disease as defined by at least one lesion in any of the three major native coronary arteries that has >20% reduction in lumen diameter by angiographic visual estimation or prior history of percutaneous coronary intervention (“PCI”). The target vessel for PCI was not the target coronary artery for research IVUS, and any vessel with previous PCI could not be used as the target coronary artery.

[1] = test system: ligatured carotid from apoE−/− mice; experiment: Cholesterol content of ligatured left carotids, apoE−/− mice on high fat diet; assay type: in vivo, mouse; settings: 8 injections
Experimental: The formulation was injected in the retro-orbital vein (50 μL/mouse) of mice anaesthetized with isoflurane, once every 2 days for 8 injections. The dose administered was based on the mean of mice bodyweight in each cage. The compounds were injected at 10 AM every day. For blood sampling, mice fasted overnight were sampled once at the indicated dose: (1) at predose (at 9 AM) by retro-orbital withdrawal: 24 hours before the first injection/day of surgery; (2) at postdose (at 9 AM) by retro-orbital withdrawal: 24 hours after the last injection; and (3) at t=0 (9 AM) and the indicated time points after the 5th injection by caudal withdrawal. Immediately after collection, blood samples were kept at ca. +4° C. to avoid alteration of the blood sample. Blood specimens were centrifuged (800×g for 10 minutes at +4° C.) and plasma was saved for future analysis.
This study examined the effect of CER-001 administration on plaque progression in ligatured carotid from apoE^−/− mice fed with a high fat diet. For each group of mice, the cholesterol content of the carotid was tested after lipid extraction and HPLC analysis. The ligatured carotids were collected the day of sacrifice and stored at −80° C. The lipids were extracted with an organic solution and the cholesterol concentration was determined by HPLC.
Ligatured carotids were lipid extracted according to the method of Section 9.2.9. The surgical straps were removed from the carotid (fresh weight) and the tissue was introduced in a glass tube. To this was added 1.8 mL of CHCl3/MeOH (2:1) and mixed overnight at 4° C. The carotid was then removed, dried and weighed and the organic solution (CHCl3/MeOH) was split in two glass tubes in equal volumes. For unesterified cholesterol (UC), 100 μL of β-sitosterol (internal standard) was added and the solution was dried. To this was added 200 μL EtOH for solubilisation of the sample and the sample was analyzed UC by HPLC. […] To this was added 200 μL EtOH for solubilisation of the sample and analysed TC by HPLC. The cholesterol concentration was determined by HPLC according to the method of Section 9.2.7. […]

[2] = test system: ABCA1 protein in J774 macrophages; experiment: ABCA1 protein level in J774 macrophages (SDS PAGE, anti-ABCA1); assay type: cell-based, mouse; settings: Study H; 250 μg/mL, 6 hours
[3] = Cholesterol content in mouse feces; assay type: in vivo
Experimental: The left and right carotids, the liver, the spleen and the aortas connected to the heart were removed and stored at −80° C. The liver was collected in four different aliquots. The remaining biological specimens were discarded after the organ collection. For feces collection, the day of the last injection for each group, the cage was changed with a new litter and feces were collected for 24 hours (day of sacrifice).
Feces were lipid extracted and analyzed by HPLC for their cholesterol content. Feces (200 mg) were solubilized in methanol:water (50:50) solution and mixed for 1 minute with Turrax®. The solution was frozen and lyophilized overnight. The following day, 4 mL of chloroform/methanol (2:1) was added and the solution was mixed for 24 hours at 4° C. To this was added water (1.33 mL), and the solution was then mixed and centrifuged for three minutes at 3700×g. The organic phase was saved and dried. The pellet was solubilized in absolute ethanol (2 mL), and filtered on cartridge AC 0.2 μm. The cholesterol concentration in the sample was analyzed according to the method of Section 9.2.7.

CER-001: engineered recombinant human apolipoprotein A-I HDL with sphingomyelin and DPPG; protein-to-phospholipid ratio 1:2.7, 97% Sph and 3% DPPG
tolerability (CHI SQUARE tolerability): well-tolerated overall | toxicities in laboratory parameters (CHI SQUARE tolerability): no apparent dose-related toxicities in laboratory parameters | decrease in total cholesterol contents in ligatured carotids ([1]; 2, 5 and 10 mg/kg): 50% | decrease in unesterified cholesterol in ligatured carotids ([1]; 2, 5 and 10 mg/kg): 25% | inhibition of plaque progression ([1]; 20 and 50 mg/kg): around 10% | ABCA1 protein level [2]: significant decrease of ABCA1 protein level | feces cholesterol content ([3]; feces collected 24 hours after last injection): dose-dependent increase | concentration of maximum cholesterol excretion ([3]; mouse, in vivo): 10 mg/kg

— patent publication US20180203025A1, “HDL THERAPY MARKERS” (Cerenis Therapeutics Holding SA, priority 2014, published 2018)
